Data as given in patent publication US20250051282A1, “COMPOUNDS FOR TREATING POLYQ-RELATED NEURODEGENERATIVE DISORDERS” (HANGZHOU JIJING PHARMACEUTICAL TECHNOLOGY LIMITED, priority 2021, published 2025).
Where a name gives a salt, the structure may show the parent alone. Read-outs that look alike come from different tables or passages of the source.

System: ATXN1(60Q)
Assay: Daoy-ATXN1(60Q)-mATXN1 MSD assay (CTG normalized)
Assay type: cell-based
Experimental: Protocol for MSD Assay: Daoy-ATXN1(600)-mATXN1 MSD (CTG normalized)
The Flag-ATXN1(60Q) gene is synthesized by Genescript and cloned into the pLVX-IRES-Puro vector (Takarabio, catalog No. 632183) using EcoRI/BamHI restriction enzyme sites. Lentivirus is made by transfecting HEK293T cells with pLVX-IRES-Puro-Flag-ATXN1(60Q) plasmids and packaging plasmids psPAX2 and pMD2.G at 4:3:1 ratio (8:6:[…], respectively) in 10 cm plates, and are harvested at 48 hours post transfection. Daoy cells (ATCC catalog No. HTB-186) seeded in T25 flasks are infected with the lentivirus in the presence of 8 µg/mL polybrene (Sigma, TR-1003-G) for 24 hours. 48 hours post infection, the cells are selected using 0.5 […] (Sigma, P8833) for more than 5 days until all cells in the uninfected group die. The expression of Flag-ATXN1(60Q) is verified by anti-Flag immunoblot using anti-Flag antibody (Sigma, F1804-200UG, M2).
As explained above, Daoy-Flag-ATXN1(60Q) cells are prepared as a stable cell line by infecting Daoy cells with lentivirus. The media for the cells is EMEM (ATTC, 30-2008) with 10% fetal bovin serum (FBS).
On Day 1, the Daoy-Flag-ATXN1(60Q) cells are seeded in a 96 well plate at a concentration of 1.2×10^4/well. On Day 2, the cells are treated with test compounds at test concentrations (compounds are serially diluted with DMSO to obtain test concentrations, such that final DMSO concentration is 0.3%). On Day 3, the cells are washed with 100 μL of phosphate-buffered saline (PBS) per well, and then 30 μL of radioimmuno-precipitation assay (RIPA) buffer (with protease and phosphatase inhibitor cocktail) is added to each well.
The well plate is then cooled on ice for 30 minutes in order to complete lysis, and MSD samples are prepared using 10 μL of Daoy-Flag-ATXN1-60Q lysate and 90 μL of RIPA buffer with gentle mixing. Each MSD sample has a total volume of 100 μL, and is used immediately or stored at −80° C.
A standard Meso Scale Discovery (MSD) plate is coated with anti-Flag (Sigma, F1804-200UG, M2) in PBS at 1:500 dilution ratio and 40 µL/well, and is incubated at 4° C. overnight with shaking at 600 rpm. Then, the MSD plate is washed 3 times with 150 µL/well of 1X TBST (tris-buffered saline (TBS) with Tween 20) buffer, and the MSD plate is blocked with 150 μL of blocking buffer [3% Blocker A in 1X TBST, (3 g Blocker A per 100 mL 1X TBST)] and shaken for 1 hour at 600 rpm at room temperature. Then, the MSD plate is washed three times with 150 μL/well of 1X TBST. Next, the diluted lysate samples (from Sample Preparation above) are added to the MSD plate at 25 μL/well, and the MSD plate is shaken at 600 rpm for 1 hour at room temperature. Then the MSD plate is washed 3 times with 150 μL/well of 1X TBST.
Detection antibody anti-Ataxin 1 (G-bio, ITA1916) (1:500), which is prepared in antibody detection buffer (1% Blocker A in 1X TBST), is then added to the MSD plate at 25 µL/well, and the MSD plate is shaken at 600 rpm for 1 hour at room temperature. The MSD plate is then washed three times with 150 μL/well of 1X TBST. Next, a secondary detection antibody, Goat anti-rabit (GAR) with SULFO-TAG (1:500), which is prepared in antibody detection buffer (1% Blocker A in 1X TBST), is added at 25 μL/well and the MSD plate is shaken at 600 rpm for 1 hour at room temperature. Then the MSD plate is washed 3 times with 150 μL/well of 1X TBST, and 2X MSD reading buffer is added at 150 μL/well (diluted from 4x MSD reading buffer with water). Finally, the signal from each well is measured on the MSD Meso QuickPle SQ120 Plate Reader. DC50 data is calculated using collaborate drug discovery (CDD) software (https://www.collaborativedrug.com/about).

[1] = Daoy-Flag-ATXN1(60Q) stable cells, compound added Day 2, lysis Day 3, final DMSO 0.3%, read-out: Daoy-ATXN1(60Q)-mATXN1 MSD (CTG normalized) DC50

**Q.** With `CN/C(=C1\C(=O)Nc2ccc(Br)cc21)c1cccc(O)c1` [Example 1, (Z)-5-bromo-3-((3-hydroxyphenyl) (methylamino)methylene) indolin-2-one] as the compound, how does the DC50 [1] read?
**A.** The DC50 was less than 10 µM.

**Q.** `CCCN/C(=C1\C(=O)Nc2ccc(Br)cc21)c1cccc(O)c1` [Example 5, (Z)-5-bromo-3-((3-hydroxyphenyl) (propylamino)methylene) indolin-2-one] was tested. Which DC50 (read-out: Daoy-ATXN1(60Q)-mATXN1 MSD (CTG normalized) DC50, Daoy-Flag-ATXN1(60Q) stable cells, compound added Day 2, lysis Day 3, final DMSO 0.3%) did it give?
**A.** Its DC50 is less than 10 µM.

**Q.** For `O=C1Nc2ccc(Br)cc2/C1=C(/NCCCF)c1cccc(O)c1` [Example 6, (Z)-5-bromo-3-(((3-fluoropropyl)amino) (3-hydroxyphenyl)methylene)indolin-2-one], which DC50 [1] is on record?
**A.** Its DC50 is less than 10 µM.

**Q.** How did the DC50 [1] turn out when `O=C1Nc2ccc(Br)cc2/C1=C(/NC1CC1)c1cccc(O)c1` [Example 7, (Z)-5-bromo-3-((cyclopropylamino) (3-hydroxyphenyl)methylene)indolin-2-one] was run?
**A.** The DC50 was less than 10 µM.

**Q.** `O=C1Nc2ccc(Br)cc2/C1=C(/NC1CCC1)c1cccc(O)c1` [Example 8, (Z)-5-bromo-3-((cyclobutylamino) (3-hydroxyphenyl)methylene)indolin-2-one] was tested. Which DC50 [1] did it give?
**A.** The DC50 was less than 10 µM.

**Q.** For `CN1CC(N/C(=C2\C(=O)Nc3ccc(Br)cc32)c2cccc(O)c2)C1` [Example 9, (Z)-5-bromo-3-((3-hydroxyphenyl)((1-methylazetidin-3-yl)amino)methylene) indolin-2-one], which DC50 [1] is on record?
**A.** The DC50 was less than 10 µM.

**Q.** Which DC50 [1] does the source give for `O=C1Nc2ccc(Br)cc2/C1=C(\c1cccc(O)c1)N1CCCCC1` [Example 12, (Z)-5-bromo-3-((3-hydroxyphenyl) (piperidin-1-yl)methylene) indolin-2-one] here?
**A.** Its DC50 is greater than 30 µM.

**Q.** For `CN1CCC(N/C(=C2\C(=O)Nc3ccc(Br)cc32)c2cccc(O)c2)CC1` [Example 15, (Z)-5-bromo-3-((3-hydroxyphenyl)((1-methylpiperidin-4-yl)amino)methylene) indolin-2-one], which DC50 [1] is on record?
**A.** Its DC50 is less than 10 µM.

**Q.** Which DC50 [1] does the source give for `O=C1Nc2ccc(Br)cc2/C1=C(/Nc1c[nH]cn1)c1cccc(O)c1` [Example 17, (Z)-3-(((1H-imidazol-4-yl)amino)(3-hydroxyphenyl)methylene)-5-bromoindolin-2-one] here?
**A.** Its DC50 is less than 10 µM.

**Q.** For `O=C1Nc2ccc(OC(F)(F)F)cc2/C1=C(/NCCO)c1cccc(O)c1` [Example 18, (Z)-3-(((2-hydroxyethyl)amino)(3-hydroxyphenyl)methylene)-5-(trifluoromethoxy) indolin-2-one], which DC50 [1] is on record?
**A.** Its DC50 is less than 10 µM.

**Q.** `O=C1Nc2ccc(Br)cc2/C1=C(/NCCCF)c1ccccc1` [Example 19, (Z)-5-bromo-3-(((3-fluoropropyl)amino) (phenyl)methylene) indolin-2-one] was tested. Which DC50 [1] did it give?
**A.** The DC50 was less than 10 µM.

**Q.** How did the DC50 [1] turn out when `O=C1Nc2ccc(Br)cc2/C1=C(/NCCCF)c1cccc(C(F)F)c1` [Example 20, (Z)-5-bromo-3-((3-(difluoromethyl)phenyl)((3-fluoropropyl)amino)methylene) indolin-2-one] was run?
**A.** Its DC50 is less than 10 µM.

**Q.** Which DC50 [1] does the source give for `Cn1cc(N/C(=C2\C(=O)Nc3ccc(Br)cc32)c2cccc(F)c2)cn1` [Example 21, (Z)-5-bromo-3-((3-fluorophenyl)((1-methyl-1H-pyrazol-4-yl)amino)methylene) indolin-2-one] here?
**A.** The DC50 was greater than 30 µM.

**Q.** How did the DC50 [1] turn out when `Cn1cc(N/C(=C2\C(=O)Nc3ccc(Br)cc32)c2ccccc2)cn1` [Example 22, (Z)-5-bromo-3-(((1-methyl-1H-pyrazol-4-yl)amino)(phenyl)methylene)indolin-2-one] was run?
**A.** Its DC50 is 10 to 30 µM.

**Q.** Which DC50 [1] does the source give for `O=C1Nc2ccc(Br)cc2/C1=C(/NC1CCNC1)c1cccc(O)c1` (stereo not shown) [Example 24, (Z)-5-bromo-3-((3-hydroxyphenyl) (pyrrolidin-3-ylamino)methylene) indolin-2-one formate] here?
**A.** Its DC50 is greater than 30 µM.

**Q.** `O=C1Nc2ccc(Br)cc2/C1=C(/NC1CCNCC1)c1cccc(O)c1` [Example 25, (Z)-5-bromo-3-((3-hydroxyphenyl) (piperidin-4-ylamino)methylene) indolin-2-one] was tested. Which DC50 [1] did it give?
**A.** Its DC50 is less than 10 µM.

**Q.** For `O=C1Nc2ccc(Br)cc2/C1=C(/NC1CNC1)c1cccc(O)c1` [Example 26, (Z)-3-((azetidin-3-ylamino)(3-hydroxyphenyl)methylene) 5-bromindolin-2-one], which DC50 [1] is on record?
**A.** The DC50 was less than 10 µM.

**Q.** `NCCN/C(=C1\C(=O)Nc2ccc(Br)cc21)c1cccc(O)c1` [Example 27, (Z)-3-(((2-aminoethyl)amino)(3-hydroxyphenyl)methylene)-5-bromo indolin-2-one] was tested. Which DC50 [1] did it give?
**A.** Its DC50 is less than 10 µM.

**Q.** With `NCCN/C(=C1\C(=O)Nc2ccc(Br)cc21)c1ccccc1` [Example 28, (Z)-3-(((2-aminoethyl)amino) (phenyl)methylene)-5-bromoindolin-2-one] as the compound, how does the DC50 [1] read?
**A.** Its DC50 is 10 to 30 µM.

**Q.** With `NCCN/C(=C1\C(=O)Nc2ccc(Br)cc21)c1cccc(C(F)F)c1` [Example 30, (Z)-3-(((2-aminoethyl)amino)(3-(difluoromethyl)phenyl)methylene)-5-bromoindolin-2-one] as the compound, how does the DC50 [1] read?
**A.** Its DC50 is less than 10 µM.

**Q.** `NCCN/C(=C1\C(=O)Nc2ccc(Br)cc21)c1cc(N)ccc1F` [Example 32, (Z)-3-((5-amino-2-fluorophenyl)((2-aminoethyl)amino)methylene)-5-bromo indolin-2-one] was tested. Which DC50 [1] did it give?
**A.** The DC50 was less than 10 µM.

**Q.** With `Nc1cccc(/C(NC2CNC2)=C2/C(=O)Nc3ccc(Br)cc32)c1` [Example 33, (Z)-3-((3-aminophenyl)(azetidin-3-ylamino)methylene)-5-bromoindolin-2-one] as the compound, how does the DC50 [1] read?
**A.** The DC50 was less than 10 µM.

**Q.** For `Nc1cccc(/C(NC2CNC2)=C2/C(=O)Nc3ccc(OC(F)(F)F)cc32)c1` [Example 34, (Z)-3-((3-aminophenyl)(azetidin-3-ylamino)methylene)-5-(trifluoromethoxy) indolin-2-one], which DC50 [1] is on record?
**A.** Its DC50 is less than 10 µM.

**Q.** For `O=C1Nc2ccc(Br)cc2/C1=C(/NC1CNC1)c1ccccc1` [Example 35, (Z)-3-((azetidin-3-ylamino)(phenyl)methylene)-5-bromo indolin-2-one], which DC50 [1] is on record?
**A.** Its DC50 is less than 10 µM.

**Q.** With `NCCOCCOCCOCCN/C(=C1\C(=O)Nc2ccc(Br)cc21)c1cccc(O)c1` [Example 36, (Z)-3-(13-amino-1-(3-hydroxyphenyl)-5,8,11-trioxa-2-azatridecylidene)-5-bromoindolin-2-one] as the compound, how does the DC50 [1] read?
**A.** Its DC50 is 10 to 30 µM.

**Q.** `O=C1Nc2ccc(Br)cc2/C1=C(/NC1CNC1)c1cccc(F)c1` [Example 37, (Z)-3-((azetidin-3-ylamino)(3-fluorophenyl)methylene)-5-bromoindolin-2-one] was tested. Which DC50 [1] did it give?
**A.** Its DC50 is less than 10 µM.

**Q.** `O=C1Nc2ccc(Br)cc2/C1=C(/Nc1ccnnc1)c1cccc(O)c1` [Example 38, (Z)-5-bromo-3-((3-hydroxyphenyl)(pyridazin-4-ylamino)methylene) indolin-2-one] was tested. Which DC50 [1] did it give?
**A.** Its DC50 is less than 10 µM.

**Q.** `O=C1Nc2ccc(Br)cc2/C1=C(/Nc1ccnnc1)c1ccccc1` [Example 39, (Z)-5-bromo-3-(phenyl(pyridazin-4-ylamino)methylene) indolin-2-one] was tested. Which DC50 [1] did it give?
**A.** Its DC50 is less than 10 µM.

**Q.** With `O=C1Nc2ccc(Br)cc2/C1=C(/Nc1ccnnc1)c1cccc(F)c1` [Example 40, (Z)-5-bromo-3-((3-fluorophenyl)(pyridazin-4-ylamino)methylene) indolin-2-one] as the compound, how does the DC50 [1] read?
**A.** Its DC50 is less than 10 µM.

**Q.** Which DC50 [1] does the source give for `O=C1Nc2ccc(Br)cc2/C1=C(/Nc1ccnnc1)c1cccc(C(F)F)c1` [Example 41, (Z)-5-bromo-3-((3-(difluoromethyl)phenyl)(pyridazin-4-ylamino)methylene) indolin-2-one] here?
**A.** Its DC50 is less than 10 µM.

**Q.** Which DC50 [1] does the source give for `O=C1Nc2ccc(Br)cc2/C1=C(/Nc1ccnnc1)c1ccc(F)c(F)c1` [Example 42, (Z)-5-bromo-3-((3,4-difluorophenyl) (pyrazin-4-ylamino)methylene) indolin-2-one] here?
**A.** The DC50 was greater than 30 µM.
